Experimental data published in patent US10093713B2, “GIP-GLP-1 dual agonist compounds and methods” (priority 2013, dated 2018).
pEC50: −log10 of the molar value. *1 amine or outer side, *2 acyl side, *3 side chain or, on linkers, in order; H or OH if unused. Where a SMILES comes first, the peptide text is derived from it. Side-chain parts run from the residue outwards. [ ]: non-standard residue; d: D form. The star is where a group is joined. X1 = O=C(O)CCCCCCCCCCCCCCCCCCC(=O)N1CCN(CC(=O)*)CC1; C20 diacid = O=C(O)CCCCCCCCCCCCCCCCCCC(=O)*; C18 diacid = O=C(O)CCCCCCCCCCCCCCCCC(=O)*; γGlu = O=C(O)[C@H](CCC(=O)[*:2])N[*:1]; AEEA = NCCOCCOCC(=O)O; Aib = CC(C)(N)C(=O)O

What was measured:
human GIP R = target: T1, human GIP R (Homo sapiens, UniProt P48546); experiment: Human GIP receptor (GIP R) activity assay, cAMP induction (AlphaScreen) in HEK293 cells; type: cell-based; settings: Table 3; most comprehensive data; read-out: hGIP-R cAMP EC50 average value
T1 construct: expressed in transfected cells
T1 sequence (P48546 22-466): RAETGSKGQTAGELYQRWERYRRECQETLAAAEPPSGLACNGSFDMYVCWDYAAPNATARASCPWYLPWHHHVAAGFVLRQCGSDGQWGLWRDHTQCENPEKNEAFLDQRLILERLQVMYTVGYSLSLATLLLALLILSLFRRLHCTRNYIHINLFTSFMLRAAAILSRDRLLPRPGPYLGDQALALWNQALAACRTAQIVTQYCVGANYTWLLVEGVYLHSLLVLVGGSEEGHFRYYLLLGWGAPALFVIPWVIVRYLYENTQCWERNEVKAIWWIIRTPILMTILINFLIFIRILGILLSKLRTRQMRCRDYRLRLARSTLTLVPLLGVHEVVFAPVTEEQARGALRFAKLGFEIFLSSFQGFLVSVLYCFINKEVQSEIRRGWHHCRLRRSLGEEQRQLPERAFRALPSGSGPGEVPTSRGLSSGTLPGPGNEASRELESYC
Summary of the method: (§1)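 Stable HEK293 clones expressing human GIP R or GLP-1 R, seeded 1 day before; cells washed in Tyrode's buffer (10 mM HEPES, pH 7.4), stimulated, then lysed. cAMP measured by AlphaScreen bead competition (1 h, room temperature, dark). EC50 = concentration giving half-maximal cAMP elevation, from curves of absolute cAMP (nM) vs log concentration.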

human GLP-1 R = target: T2, human GLP-1 R (Homo sapiens, UniProt P43220); experiment: Human GLP-1 receptor (GLP-1 R) activity assay, cAMP induction (AlphaScreen) in HEK293 cells; type: cell-based; settings: Table 3; most comprehensive data; read-out: hGLP-1-R cAMP EC50 average value
T2 construct: expressed in transfected cells
Summary of the method: as §1

T2 sequence (P43220 24-463): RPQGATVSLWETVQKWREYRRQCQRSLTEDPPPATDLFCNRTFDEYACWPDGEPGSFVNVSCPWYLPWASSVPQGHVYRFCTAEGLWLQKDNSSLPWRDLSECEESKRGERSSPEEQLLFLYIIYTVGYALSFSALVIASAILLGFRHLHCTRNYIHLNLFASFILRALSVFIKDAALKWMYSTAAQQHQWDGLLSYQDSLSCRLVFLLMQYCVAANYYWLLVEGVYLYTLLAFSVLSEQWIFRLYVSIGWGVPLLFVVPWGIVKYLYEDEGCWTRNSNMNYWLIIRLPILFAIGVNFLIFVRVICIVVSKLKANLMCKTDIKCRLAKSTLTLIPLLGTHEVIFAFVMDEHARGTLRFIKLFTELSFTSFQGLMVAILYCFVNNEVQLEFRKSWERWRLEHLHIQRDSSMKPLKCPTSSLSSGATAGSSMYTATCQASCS

Compound | pEC50 (human GIP R) | pEC50 (human GLP-1 R)
CC[C@H](C)[C@H](NC(=O)[C@H](CO)NC(=O)[C@H](Cc1ccc(O)cc1)NC(=O)[C@H](CC(=O)O)NC(=O)[C@H](CO)NC(=O)[C@@H](NC(=O)[C@H](Cc1ccccc1)NC(=O)[C@@H](NC(=O)CNC(=O)[C@H](CCC(=O)O)NC(=O)C(C)(C)NC(=O)[C@@H](N)Cc1ccc(O)cc1)[C@@H](C)O)[C@@H](C)O)C(=O)N[C@@H](C)C(=O)N[C@@H](CC(C)C)C(=O)N[C@@H](CC(=O)O)C(=O)N[C@@H](CCCCN)C(=O)N[C@@H](CCCCNC(=O)COCCOCCNC(=O)COCCOCCNC(=O)CC[C@H](NC(=O)CCCCCCCCCCCCCCCCC(=O)O)C(=O)O)C(=O)N[C@@H](C)C(=O)N[C@@H](CCC(N)=O)C(=O)N[C@@H](CCCNC(=N)N)C(=O)N[C@@H](C)C(=O)N[C@@H](Cc1ccccc1)C(=O)N[C@H](C(=O)N[C@@H](CCC(=O)O)C(=O)N[C@@H](Cc1c[nH]c2ccccc12)C(=O)N[C@@H](CC(C)C)C(=O)N[C@@H](CC(C)C)C(=O)N[C@@H](C)C(=O)N[C@@H](CCC(N)=O)C(=O)NCC(=O)N1CCC[C@H]1C(=O)N[C@@H](CO)C(=O)N[C@@H](CO)C(=O)NCC(=O)N[C@@H](C)C(=O)N1CCC[C@H]1C(=O)N1CCC[C@H]1C(=O)N1CCC[C@H]1C(=O)N[C@@H](CO)C(N)=O)C(C)C [Compound 51] (H-Y[Aib]EGTFTSDYSIALDKK([AEEA-AEEA-γGlu-C18 diacid])AQRAFVEWLLAQGPSSGAPPPS-NH2) | 11.30 | 10.77
CC[C@H](C)[C@H](NC(=O)[C@H](CO)NC(=O)[C@H](Cc1ccc(O)cc1)NC(=O)[C@H](CC(=O)O)NC(=O)[C@H](CO)NC(=O)[C@@H](NC(=O)[C@H](Cc1ccccc1)NC(=O)[C@@H](NC(=O)CNC(=O)[C@H](CCC(=O)O)NC(=O)C(C)(C)NC(=O)[C@@H](N)Cc1ccc(O)cc1)[C@@H](C)O)[C@@H](C)O)C(=O)N[C@@H](C)C(=O)N[C@@H](CC(C)C)C(=O)N[C@@H](CC(=O)O)C(=O)N[C@@H](CCCCN)C(=O)N[C@@H](CCCCNC(=O)COCCOCCNC(=O)COCCOCCNC(=O)CN1CCN(C(=O)CCCCCCCCCCCCCCCCCCC(=O)O)CC1)C(=O)N[C@@H](C)C(=O)N[C@@H](CCC(N)=O)C(=O)N[C@@H](CCCNC(=N)N)C(=O)N[C@@H](C)C(=O)N[C@@H](Cc1ccccc1)C(=O)N[C@H](C(=O)N[C@@H](CCC(=O)O)C(=O)N[C@@H](Cc1c[nH]c2ccccc12)C(=O)N[C@@H](CC(C)C)C(=O)N[C@@H](CC(C)C)C(=O)N[C@@H](C)C(=O)N[C@@H](CCC(N)=O)C(=O)NCC(=O)N1CCC[C@H]1C(=O)N[C@@H](CO)C(=O)N[C@@H](CO)C(=O)NCC(=O)N[C@@H](C)C(=O)N1CCC[C@H]1C(=O)N1CCC[C@H]1C(=O)N1CCC[C@H]1C(=O)N[C@@H](CO)C(N)=O)C(C)C [Compound 52] (H-Y[Aib]EGTFTSDYSIALDKK([AEEA-AEEA-X1])AQRAFVEWLLAQGPSSGAPPPS-NH2) | 11.00 | 10.92
CC[C@H](C)[C@H](NC(=O)[C@H](CO)NC(=O)[C@H](Cc1ccc(O)cc1)NC(=O)[C@H](CC(=O)O)NC(=O)[C@H](CO)NC(=O)[C@@H](NC(=O)[C@H](Cc1ccccc1)NC(=O)[C@@H](NC(=O)CNC(=O)[C@H](CCC(=O)O)NC(=O)C(C)(C)NC(=O)[C@@H](N)Cc1ccc(O)cc1)[C@@H](C)O)[C@@H](C)O)C(=O)N[C@@H](C)C(=O)N[C@@H](CC(C)C)C(=O)N[C@@H](CC(=O)O)C(=O)N[C@@H](CCCCN)C(=O)N[C@@H](CCCCNC(=O)COCCOCCNC(=O)COCCOCCNC(=O)CN1CCN(C(=O)CCCCCCCCCCCCCCCCCCC(=O)O)CC1)C(=O)N[C@@H](C)C(=O)N[C@@H](CCC(N)=O)C(=O)N[C@@H](CCCCN)C(=O)N[C@@H](CCC(=O)O)C(=O)N[C@@H](Cc1ccccc1)C(=O)N[C@H](C(=O)N[C@@H](CCC(=O)O)C(=O)N[C@@H](Cc1c[nH]c2ccccc12)C(=O)N[C@@H](CC(C)C)C(=O)N[C@@H](CC(C)C)C(=O)N[C@@H](C)C(=O)N[C@@H](C)C(=O)NCC(=O)N1CCC[C@H]1C(=O)N[C@@H](CO)C(=O)N[C@@H](CO)C(=O)NCC(=O)N[C@@H](C)C(=O)N1CCC[C@H]1C(=O)N1CCC[C@H]1C(=O)N1CCC[C@H]1C(=O)N[C@@H](CO)C(N)=O)C(C)C [Compound 53] (H-Y[Aib]EGTFTSDYSIALDKK([AEEA-AEEA-X1])AQKEFVEWLLAAGPSSGAPPPS-NH2) | 11.22 | 10.85
CC[C@H](C)[C@H](NC(=O)[C@H](CO)NC(=O)[C@H](Cc1ccc(O)cc1)NC(=O)[C@H](CC(=O)O)NC(=O)[C@H](CO)NC(=O)[C@@H](NC(=O)[C@H](Cc1ccccc1)NC(=O)[C@@H](NC(=O)CNC(=O)[C@H](CCC(=O)O)NC(=O)C(C)(C)NC(=O)[C@@H](N)Cc1ccc(O)cc1)[C@@H](C)O)[C@@H](C)O)C(=O)N[C@@H](Cc1ccc(O)cc1)C(=O)N[C@@H](CC(C)C)C(=O)N[C@@H](CC(=O)O)C(=O)N[C@@H](CCCCN)C(=O)N[C@@H](CCCCNC(=O)COCCOCCNC(=O)COCCOCCNC(=O)CC[C@H](NC(=O)CCCCCCCCCCCCCCCCCCC(=O)O)C(=O)O)C(=O)N[C@@H](C)C(=O)N[C@@H](CCC(N)=O)C(=O)N[C@@H](CCCNC(=N)N)C(=O)N[C@@H](C)C(=O)N[C@@H](Cc1ccccc1)C(=O)N[C@H](C(=O)N[C@@H](CCC(=O)O)C(=O)N[C@@H](Cc1c[nH]c2ccccc12)C(=O)N[C@@H](CC(C)C)C(=O)N[C@@H](CC(C)C)C(=O)N[C@@H](C)C(=O)N[C@@H](CCC(=O)O)C(=O)NCC(=O)N1CCC[C@H]1C(=O)N[C@@H](CO)C(=O)N[C@@H](CO)C(=O)NCC(=O)N[C@@H](C)C(=O)N1CCC[C@H]1C(=O)N1CCC[C@H]1C(=O)N1CCC[C@H]1C(=O)N[C@@H](CO)C(N)=O)C(C)C [Compound 54] (H-Y[Aib]EGTFTSDYSIYLDKK([AEEA-AEEA-γGlu-C20 diacid])AQRAFVEWLLAEGPSSGAPPPS-NH2) | 10.80 | 10.92
CC[C@H](C)[C@H](NC(=O)[C@H](CO)NC(=O)[C@H](Cc1ccc(O)cc1)NC(=O)[C@H](CC(=O)O)NC(=O)[C@H](CO)NC(=O)[C@@H](NC(=O)[C@H](Cc1ccccc1)NC(=O)[C@@H](NC(=O)CNC(=O)[C@H](CCC(=O)O)NC(=O)C(C)(C)NC(=O)[C@@H](N)Cc1ccc(O)cc1)[C@@H](C)O)[C@@H](C)O)C(=O)N[C@@H](C)C(=O)N[C@@H](CC(C)C)C(=O)N[C@@H](CC(=O)O)C(=O)N[C@@H](CCCCN)C(=O)N[C@@H](CCCCNC(=O)COCCOCCNC(=O)COCCOCCNC(=O)CC[C@H](NC(=O)CCCCCCCCCCCCCCCCCCC(=O)O)C(=O)O)C(=O)N[C@@H](C)C(=O)N[C@@H](CCC(N)=O)C(=O)N[C@@H](CCCNC(=N)N)C(=O)N[C@@H](C)C(=O)N[C@@H](Cc1ccccc1)C(=O)N[C@H](C(=O)N[C@@H](CCC(=O)O)C(=O)N[C@@H](Cc1c[nH]c2ccccc12)C(=O)N[C@@H](CC(C)C)C(=O)N[C@@H](CC(C)C)C(=O)N[C@@H](C)C(=O)N[C@@H](CCC(=O)O)C(=O)NCC(=O)N1CCC[C@H]1C(=O)N[C@@H](CO)C(=O)N[C@@H](CO)C(=O)NCC(=O)N[C@@H](C)C(=O)N1CCC[C@H]1C(=O)N1CCC[C@H]1C(=O)N1CCC[C@H]1C(=O)N[C@@H](CO)C(N)=O)C(C)C [Compound 55] (H-Y[Aib]EGTFTSDYSIALDKK([AEEA-AEEA-γGlu-C20 diacid])AQRAFVEWLLAEGPSSGAPPPS-NH2) | 10.80 | 10.89
CC[C@H](C)[C@H](NC(=O)[C@H](CO)NC(=O)[C@H](Cc1ccc(O)cc1)NC(=O)[C@H](CC(=O)O)NC(=O)[C@H](CO)NC(=O)[C@@H](NC(=O)[C@H](Cc1ccccc1)NC(=O)[C@@H](NC(=O)CNC(=O)[C@H](CCC(=O)O)NC(=O)C(C)(C)NC(=O)[C@@H](N)Cc1ccc(O)cc1)[C@@H](C)O)[C@@H](C)O)C(=O)N[C@@H](C)C(=O)N[C@@H](CC(C)C)C(=O)N[C@@H](CC(=O)O)C(=O)N[C@@H](CCCCN)C(=O)N[C@@H](CCCCNC(=O)COCCOCCNC(=O)COCCOCCNC(=O)CC[C@H](NC(=O)CCCCCCCCCCCCCCCCCCC(=O)O)C(=O)O)C(=O)N[C@@H](C)C(=O)N[C@@H](CCC(N)=O)C(=O)N[C@@H](CCCNC(=N)N)C(=O)N[C@@H](C)C(=O)N[C@@H](Cc1ccccc1)C(=O)N[C@H](C(=O)N[C@@H](CCC(=O)O)C(=O)N[C@@H](Cc1c[nH]c2ccccc12)C(=O)N[C@@H](CC(C)C)C(=O)N[C@@H](CC(C)C)C(=O)N[C@@H](C)C(=O)N[C@@H](CCC(=O)O)C(=O)N1CCC[C@H]1C(=O)N[C@@H](CO)C(=O)N[C@@H](CO)C(=O)NCC(=O)N[C@@H](C)C(=O)N1CCC[C@H]1C(=O)N1CCC[C@H]1C(=O)N1CCC[C@H]1C(=O)N[C@@H](CO)C(N)=O)C(C)C [Compound 56] (H-Y[Aib]EGTFTSDYSIALDKK([AEEA-AEEA-γGlu-C20 diacid])AQRAFVEWLLAEPSSGAPPPS-NH2) | 10.60 | 10.48
